Key:
Assay type in all cases: cell-based, human
albumin = test: Albumin expression by real-time quantitative PCR (Example 4); settings: 1 mM in HSM, 7 days culture, control ReproFF
Experimental: (§1) 201B7 cells, ReproFF, HSM, calcium lactate, and sodium lactate were prepared in the same manner as in Example 2.
(§2) The 201B7 cells were seeded to a 6-well plate coated with Matrigel, and when 100% confluence had been reached, the medium was exchanged with 1 mM calcium lactate (Ca-lactate), 1 mM sodium lactate (Na-lactate), or 1 mM lactic acid (Lactate), followed by culture for 7 days. Control cells were cultured in ReproFF.
(§3) RNA was extracted and analyzed for the expression levels of AFP and albumin by real-time quantitative PCR.

AFP [1] = test: AFP expression by real-time quantitative PCR (Example 4); settings: 1 mM in HSM, 7 days culture, control ReproFF
Experimental: as §1, §2, §3

201B7 cells [2] = test: Optical microscope observation 1: precipitates and cell survival after 7-day culture (Example 3)
Experimental: In the above-mentioned Examples, precipitates were formed in culture dishes in some cases. The formation of the precipitates inhibits contact between cells and medium to adversely affect long-term survival. Therefore, conditions under which the precipitates were not formed were investigated.
201B7 cells, ReproFF, HSM, and calcium lactate were prepared in the same manner as in Example 2.
5×10^4 201B7 cells were seeded to a 96-well plate coated with Matrigel. The next day, to HSM, calcium lactate was added at 3 μM, 10 μM, 30 μM, 100 μM, 300 μM, 1 mM, 3 mM, 10 mM, 30 mM, or 100 mM, followed by culture for 7 days.

201B7 cells [3] = test: Optical microscope observation 2: state of culture cells (Example 5); settings: 1 mM, 7 days culture
Experimental: 201B7 cells, HSM, calcium lactate, sodium lactate, and lactic acid were prepared in the same manner as in Example 2.
The 201B7 cells were seeded to a 6-well plate coated with Matrigel, and when 100% confluence had been reached, the medium was exchanged with 1 mM calcium lactate, 1 mM sodium lactate, or 1 mM lactic acid, followed by culture for 7 days.

AFP [4] = test: Immunostaining with anti-AFP antibody (Example 6); settings: HSM supplemented, 7 days culture
Experimental: 201B7 cells, HSM, ReproFF, and calcium lactate were prepared in the same manner as in Example 2.
The 201B7 cells were seeded to an 8-well chamber slide and cultured. After 100% confluence had been reached, 1 mM calcium lactate was added to HSM, followed by culture for 7 days. As a control, the cells were cultured in ReproFF for 7 days.
The cells were fixed with 4% paraformaldehyde, and washed with phosphate buffered saline (PBS). The cells were incubated at 4° C. for 30 minutes in 100% methanol having added thereto 0.3% hydrogen peroxide solution to inactivate intrinsic peroxidase. The cells were washed three times with PBS. The cells were incubated at 4° C. for 30 minutes in PBS supplemented with 2% fetal bovine serum (wash buffer).
A mouse anti-human alpha-fetoprotein (AFP) antibody (manufactured by Takara Bio Inc., product code: M225) was diluted 1,000-fold with the wash buffer and added, followed by incubation at 4° C. overnight. The resultant was washed three times with PBS. An anti-mouse IgG antibody (manufactured by GE Healthcare) labeled with Horse-radish peroxidase was diluted 1,000-fold with the wash buffer, followed by incubation at 4° C. for 3 hours. The resultant was washed three times with PBS. Color development was performed with 3,3-diaminobenzidine (DAKO, K3467), and nuclei were stained with hematoxylin, followed by mounting.

[5] = in HSM, 7 days culture, optical microscope

SMILES | expression of albumin as compared to the undifferentiated state (albumin) | expression of AFP as compared to the undifferentiated state (AFP [1]) | optical microscope observation, FIG. 3A (201B7 cells [2]; 3 mM, 7 days culture) | state of cells as compared to cells cultured with calcium lactate (201B7 cells [3]) | AFP expression (immunostaining) as compared to cells cultured in ReproFF (AFP [4]) | cell survival in HSM supplemented with lactic acid (general remark) (201B7 cells [2]; iPS cells, 7 days) | cell survival (201B7 cells [2]; 1 mM in HSM, 7 days culture) | concentration at which precipitates were found (201B7 cells [2]; [5]) [µM] | concentration at which precipitates were not found (201B7 cells [2]; [5]) [µM]
CC(O)C(=O)[O-].[Na+] (stereo not drawn) [sodium lactate] | upregulated | upregulated | precipitates | collapsing tendency | – | – | – | – | –
CC(O)C(=O)O (stereo not drawn) [lactic acid] | – | – | – | collapsing tendency | upregulated | survived even after 7 days | – | – | –
CC(O)C(=O)[O-].CC(O)C(=O)[O-].[Ca+2] (stereo not drawn) [calcium lactate] | upregulated | upregulated | – | – | – | – | survived | ≥ 3000 | ≤ 1000

Source: patent US20190127692A1, “Production Method For Hepatocyte Lineage Cells, Hepatocyte Lineage Cell Or Culture Product Obtained By The Production Method, And Hepatocyte Differentiation-Inducing Medium” (National University Corporation Chiba University, priority 2017, published 2019)
